Data: patent publication US11414415B2, “6H-imidazo[4,5,1-ij]quinolone, synthesis method and use thereof” (HANGZHOU NORMAL UNIVERSITY, priority 2020, dated 2022)

Test system: A549 (lung cancer cell)
Assay: MTT tumor cell proliferation assay on A549 lung cancer cells
Format: cell-based
Conditions: for IC50: Homo sapiens, 48 h, 44 h culture + 4 h MTT, read at 570 nm, sample concentration 0.5 mg/mL (water as solvent)
Description: Biological activity assay was conducted on compounds I-d to I-f prepared in the above examples:
Original osimertinib was used as control.
Specific procedure was as follows: plating A549 cells in a 96-well plate at a cell density of 2×10^4 cells/mL; after placing in an incubator overnight at 37° C. in 5% CO2, adding samples to be screened (sample concentrations are given in Table 1; medication groups were given 10 μL of the drug at the corresponding concentration per well, and blank control group was given 10 μL of PBS per well); after culturing for 44 h, adding 10 μL of MTT per well to culture for additional 4 h; dissolving in DMSO, shaking, and detecting on a microplate reader at 570 nm.
Inhibitory concentration 50 (IC50) values of 6H-imidazo[4,5,1-ij]quinolone derivatives with structures as shown in formulas I-d to I-f and control drug original osimertinib against A549 (lung cancer cell) were detected.

Compound | IC50 | IC50 value compared with osimertinib (statement in words)
O=c1ccn2c(-c3ccc(F)cc3)nc3cccc1c32 [I-b] | 15.3 µM | 
C=CC(=O)Nc1cc(Nc2nccc(-c3cn(C)c4ccccc34)n2)c(OC)cc1N(C)CCN(C)C [Osimertinib, osimertinib, reference compound] | 9.74 µM | 
Cc1ccc(-c2nc3cccc4c(=O)ccn2c34)cc1 [I-a] | 11.2 µM | 
COc1cc2nc(-c3ccccc3)n3ccc(=O)c(c1)c23 [I-f] | 12.3 µM | 
O=c1ccn2c(-c3ccccc3Cl)nc3cccc1c32 [I-c] | 16.2 µM | 
O=c1ccn2c(-c3cccs3)nc3cccc1c32 [I-d] | 9.9 µM | equivalent to anti-lung cancer drug osimertinib
O=c1ccn2c(C3CC3)nc3cccc1c32 [I-e] | 21.1 µM | 
